Laboratory results reported in PMC6357004 (Viruses, 2018).

Assays:
[1] = test system: B/Wyoming/07/2017 (B/Yamagata lineage) D198N variant; conditions: cited from earlier work
[2] = biological target: neuraminidase (NA) of recombinant influenza B/Phuket/3073/2013 H136N virus (Influenza B virus, UniProt A0A1S5RAG6, H134N); assay type: biochemical, influenza B/Phuket/3073/2013 virus
[3] = biological target: neuraminidase (NA) of recombinant influenza B/Phuket/3073/2013 R152K virus (Influenza B virus, UniProt A0A1S5RAG6, R150K); assay type: biochemical, influenza B/Phuket/3073/2013 virus
[4] = biological target: neuraminidase (NA) of recombinant influenza B/Phuket/3073/2013 D198E virus (Influenza B virus, UniProt A0A1S5RAG6, D197E); assay type: biochemical, influenza B/Phuket/3073/2013 virus
[5] = biological target: neuraminidase (NA) of recombinant influenza B/Phuket/3073/2013 D198N virus (Influenza B virus, UniProt A0A1S5RAG6, D197N); assay type: biochemical, influenza B/Phuket/3073/2013 virus
[6] = biological target: neuraminidase (NA) of recombinant influenza B/Phuket/3073/2013 I222T virus (Influenza B virus, UniProt A0A1S5RAG6, I221T); assay type: biochemical, influenza B/Phuket/3073/2013 virus
[7] = biological target: neuraminidase (NA) of recombinant influenza B/Phuket/3073/2013 N294S virus (Influenza B virus, UniProt A0A1S5RAG6, N294S); assay type: biochemical, influenza B/Phuket/3073/2013 virus
[8] = read-out: Neuraminidase Inhibitors IC50 values

SMILES	susceptibility phenotype [1]	Folds (fold changes according to WT virus) [2] [fold]	IC50 [2, 8] [nM]	Folds (fold changes according to WT virus) [3] [fold]	IC50 [3, 8] [nM]	Folds (fold changes according to WT virus) [4] [fold]	IC50 [4, 8] [nM]	Folds (fold changes according to WT virus) [5] [fold]	IC50 [5, 8] [nM]	Folds (fold changes according to WT virus) [6] [fold]	IC50 [6, 8] [nM]	Folds (fold changes according to WT virus) [7] [fold]	IC50 [7, 8] [nM]
CC(=O)N[C@H]1[C@H]([C@H](O)[C@H](O)CO)OC(C(=O)O)=C[C@@H]1N=C(N)N [Zanamivir, zanamivir]	susceptible	–	–	–	–	–	–	–	–	–	–	–	–
CCC(CC)[C@H](NC(C)=O)[C@@H]1[C@H](O)[C@@H](C(=O)O)C[C@H]1N=C(N)N [Peramivir, peramivir]	–	240	177	572	423	21	15.5	9	6.92	26	19.5	46	33.7
